The numbers were not newly measured in PMC8131289, “Direct Comparison of the Prediction of the Unbound Brain-to-Plasma Partitioning Utilizing Machine Learning Approach and Mechanistic Neuropharmacokinetic Model” (The AAPS Journal, 2021), which cites them from elsewhere.

For series [1] the following is noted: external dataset.
Another series addresses MDR1 (Homo sapiens, UniProt P08183).
Another series has as its target T1, BCRP (Homo sapiens, UniProt Q9UNQ0).
T1 sequence (Q9UNQ0 1-655): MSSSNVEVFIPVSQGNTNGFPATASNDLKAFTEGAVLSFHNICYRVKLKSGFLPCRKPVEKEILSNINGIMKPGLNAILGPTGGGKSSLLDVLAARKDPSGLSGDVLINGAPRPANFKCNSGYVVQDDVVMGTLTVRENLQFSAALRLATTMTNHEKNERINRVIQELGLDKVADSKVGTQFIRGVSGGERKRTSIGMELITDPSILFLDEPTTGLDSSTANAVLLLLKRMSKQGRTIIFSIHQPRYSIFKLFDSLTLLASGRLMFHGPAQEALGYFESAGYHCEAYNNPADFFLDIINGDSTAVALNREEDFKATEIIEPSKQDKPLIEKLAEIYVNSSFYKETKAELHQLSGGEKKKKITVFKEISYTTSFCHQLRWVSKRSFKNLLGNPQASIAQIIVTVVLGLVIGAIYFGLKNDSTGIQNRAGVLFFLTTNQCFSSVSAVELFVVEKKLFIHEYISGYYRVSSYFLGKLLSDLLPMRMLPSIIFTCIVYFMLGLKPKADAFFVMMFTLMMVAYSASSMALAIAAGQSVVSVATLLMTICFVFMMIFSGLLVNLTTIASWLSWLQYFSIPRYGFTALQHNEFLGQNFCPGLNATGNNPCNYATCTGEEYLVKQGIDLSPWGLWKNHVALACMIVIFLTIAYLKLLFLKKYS

Setting [2] is: MDCK-MDR1 cells, external dataset, ref (17).
The mark [3] stands for this setting: MDCK-BCRP cells, external dataset, ref (17).

Like-named read-outs stand apart in the source and are kept apart here.

Chain of MDR1 (P08183 whole entry): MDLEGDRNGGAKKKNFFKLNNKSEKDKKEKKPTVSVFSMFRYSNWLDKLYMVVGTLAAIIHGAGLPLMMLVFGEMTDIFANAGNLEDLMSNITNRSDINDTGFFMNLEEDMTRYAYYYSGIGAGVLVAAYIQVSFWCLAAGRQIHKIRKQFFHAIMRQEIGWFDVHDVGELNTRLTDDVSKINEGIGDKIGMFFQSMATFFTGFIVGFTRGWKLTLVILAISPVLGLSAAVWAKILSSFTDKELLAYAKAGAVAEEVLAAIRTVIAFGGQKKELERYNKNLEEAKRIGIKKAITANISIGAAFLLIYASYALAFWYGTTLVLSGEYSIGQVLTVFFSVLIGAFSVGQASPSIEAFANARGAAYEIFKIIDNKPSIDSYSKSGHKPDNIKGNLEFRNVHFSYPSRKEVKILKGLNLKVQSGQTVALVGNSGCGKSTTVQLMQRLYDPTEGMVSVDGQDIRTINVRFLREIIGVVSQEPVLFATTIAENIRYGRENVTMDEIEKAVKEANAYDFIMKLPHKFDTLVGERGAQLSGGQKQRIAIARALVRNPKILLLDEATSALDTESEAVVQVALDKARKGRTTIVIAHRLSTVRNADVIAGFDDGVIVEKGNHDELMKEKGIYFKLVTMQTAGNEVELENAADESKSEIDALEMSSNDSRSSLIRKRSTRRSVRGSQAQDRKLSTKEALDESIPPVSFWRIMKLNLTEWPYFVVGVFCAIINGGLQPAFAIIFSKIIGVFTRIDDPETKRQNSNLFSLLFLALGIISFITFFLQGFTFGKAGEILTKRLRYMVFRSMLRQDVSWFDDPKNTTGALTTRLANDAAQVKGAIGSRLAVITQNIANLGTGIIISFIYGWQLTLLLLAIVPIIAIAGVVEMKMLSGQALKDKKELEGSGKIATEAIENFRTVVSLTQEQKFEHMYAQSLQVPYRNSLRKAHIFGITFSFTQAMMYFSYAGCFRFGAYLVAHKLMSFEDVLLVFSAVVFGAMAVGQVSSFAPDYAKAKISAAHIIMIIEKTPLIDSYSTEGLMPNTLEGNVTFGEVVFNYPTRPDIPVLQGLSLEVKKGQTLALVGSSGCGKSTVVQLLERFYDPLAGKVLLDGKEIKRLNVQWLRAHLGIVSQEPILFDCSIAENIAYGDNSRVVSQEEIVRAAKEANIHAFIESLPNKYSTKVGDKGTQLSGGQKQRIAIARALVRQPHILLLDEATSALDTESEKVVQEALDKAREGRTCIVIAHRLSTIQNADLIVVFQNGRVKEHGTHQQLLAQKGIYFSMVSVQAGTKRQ

Consider `COc1ccc(C(CN(C)C)C2(O)CCCCC2)cc1` (centres unmarked) [Venlafaxine], for which the “Kp,uu,brain” value in series [1] (ref (30)) is 1.07.
For `C#Cc1cccc(Nc2ncnc3cc(OCCOC)c(OCCOC)cc23)c1` [Erlotinib], in series [1] (ref (17)), the “Kp,uu,brain” value is given as 0.0614.
For `CC(NC(C)(C)C)C(=O)c1cccc(Cl)c1` (centres unmarked) [Bupropion], on MDR1 (setting [2]), the “Efflux ratio MDR1” value was 1.2. Further, on BCRP (setting [3]), the “Efflux ratio BCRP” value is recorded as 0.80.
Consider `Cc1cc(=O)n(-c2ccccc2)n1C` [Antipyrine], for which the “Efflux ratio MDR1” value at MDR1 (MDCK-MDR1) is 0.91. Moreover, on BCRP, the “Efflux ratio BCRP” value is 0.96.
In the case of `CN(Cc1cnc2nc(N)nc(N)c2n1)c1ccc(C(=O)N[C@@H](CCC(=O)O)C(=O)O)cc1` [Methotrexate], on MDR1 (setting [2]), the “Efflux ratio MDR1” value was 1.42.
Regarding `CN[C@H]1CC[C@@H](c2ccc(Cl)c(Cl)c2)c2ccccc21` [Sertraline], on MDR1 (setting [2]), the “Efflux ratio MDR1” value was 0.46.
In the case of `CNCCC(Oc1ccc(C(F)(F)F)cc1)c1ccccc1` (centres unmarked) [Fluoxetine], the “Kp,uu,brain” value in series [1] (ref (30)) is reported as 2.14.
As for `CC(C)NCC(O)COc1cccc2[nH]ccc12` (centres unmarked) [Pindolol], the “Efflux ratio MDR1” value on MDR1 (setting [2]) is given as 5.4.
Turning to `CSc1ccc2c(c1)N(CCC1CCCCN1C)c1ccccc1S2` (centres unmarked) [Thioridazine], the “Efflux ratio MDR1” value on MDR1 (setting [2]) is 2.6. In addition, the “Efflux ratio BCRP” value at BCRP (setting [3]) is recorded as 0.57. The “Kp,uu,brain” value in series [1] (ref (30)) is 1.43.
As for `COc1ccc2c(c1)c(CC(=O)O)c(C)n2C(=O)c1ccc(Cl)cc1` [Indomethacin], the “Efflux ratio MDR1” value on MDR1 (setting [2]) is listed as 4.4. For the same molecule, the “Efflux ratio BCRP” value at BCRP (setting [3]) is listed as 20.
As for `CN1CCN2c3ncccc3Cc3ccccc3C2C1` (centres unmarked) [Mirtazapine], the “Kp,uu,brain” value in series [1] (ref (30)) is 1.61.
As to `CN(C)C(=O)C(CCN1CCC(O)(c2ccc(Cl)cc2)CC1)(c1ccccc1)c1ccccc1` [Loperamide], in series [1] (ref (30)), the “Kp,uu,brain” value is recorded as 0.0244.
Regarding `NC(=O)N1c2ccccc2C=Cc2ccccc21` [Carbamazepine], the “Efflux ratio MDR1” value on MDR1 (setting [2]) was 1.26. Besides, the “Efflux ratio BCRP” value on BCRP (setting [3]) was 0.88. Besides, the “Kp,uu,brain” value in series [1] (ref (30)) is 0.389.
